In general, AC50 refers to the concentration at which the activity in the assay is half-maximal.

The results in this text go back to ChEMBL document CHEMBL1201862, “PubChem BioAssay data set” (2004).

Assay [1] deals with T1, Ubiquitin-conjugating enzyme E2 N (Homo sapiens, UniProt P61088).
T1 sequence (P61088 whole entry): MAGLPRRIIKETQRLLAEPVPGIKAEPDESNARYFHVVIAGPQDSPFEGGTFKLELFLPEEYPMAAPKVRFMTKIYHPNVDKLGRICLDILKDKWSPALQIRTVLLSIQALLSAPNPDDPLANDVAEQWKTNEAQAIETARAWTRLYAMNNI
The class given is functional.

Assay [2] concerns the target T2, Sentrin-specific protease 8 (Homo sapiens, UniProt Q96LD8).
T2 sequence (Q96LD8 whole entry): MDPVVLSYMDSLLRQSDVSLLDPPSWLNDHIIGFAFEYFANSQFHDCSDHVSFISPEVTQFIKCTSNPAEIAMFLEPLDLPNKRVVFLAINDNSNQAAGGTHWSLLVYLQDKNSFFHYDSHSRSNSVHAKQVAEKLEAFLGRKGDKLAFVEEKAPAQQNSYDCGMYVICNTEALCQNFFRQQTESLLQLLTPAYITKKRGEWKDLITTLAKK
The class given is functional.

The target of assay [3] is T2, Sentrin-specific protease 8. The class given is functional. This is another data set of the same source.
For assay [4], the target named is T3, Heat shock factor protein 1 (Mus musculus, UniProt P38532).
T3 sequence (P38532 whole entry): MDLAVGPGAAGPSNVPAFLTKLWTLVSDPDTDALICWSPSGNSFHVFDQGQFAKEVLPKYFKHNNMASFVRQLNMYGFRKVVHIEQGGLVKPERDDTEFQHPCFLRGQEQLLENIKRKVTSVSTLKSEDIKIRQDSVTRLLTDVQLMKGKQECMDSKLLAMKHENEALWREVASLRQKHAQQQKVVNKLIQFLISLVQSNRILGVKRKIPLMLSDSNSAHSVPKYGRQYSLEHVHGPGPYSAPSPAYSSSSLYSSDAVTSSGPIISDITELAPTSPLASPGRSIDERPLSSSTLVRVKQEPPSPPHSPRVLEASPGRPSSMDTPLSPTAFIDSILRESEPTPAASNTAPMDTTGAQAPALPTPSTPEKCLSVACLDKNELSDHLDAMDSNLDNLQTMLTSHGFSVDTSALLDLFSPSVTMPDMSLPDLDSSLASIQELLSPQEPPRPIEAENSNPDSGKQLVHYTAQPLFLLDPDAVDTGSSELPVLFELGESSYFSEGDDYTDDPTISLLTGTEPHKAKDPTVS
Kind of assay: decrease of HSF1-responsive luciferase luminescence – cell-based, NIH3T3, dose retest, confirmation (AID 2382).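 Also: NIH3T3 fibroblasts with HSF1-driven luciferase reporter stressed by proteasome inhibitor MG132; luminescence from HSF1-driven luciferase expression after 8 hours of MG132 stress.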 The class given is functional.

The test system of assay [5] is H9c2. Nature of the assay: cells. The class given is functional, cell-based. Conditions: Rattus norvegicus, H9c2, Myocardium.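 Also: confirmatory concentration-response retest of ultra-high-throughput screening hits for modulation of myocardial damage; cell death induced by hydrogen peroxide oxidative stress; compound pretreatment for 60 min then peroxide exposure for 2 h; potency is for protecting the cells against peroxide damage rather than for killing them.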
The target of assay [6] is T4, Interleukin-8 (Homo sapiens, UniProt P10145).
T4 sequence (P10145 whole entry): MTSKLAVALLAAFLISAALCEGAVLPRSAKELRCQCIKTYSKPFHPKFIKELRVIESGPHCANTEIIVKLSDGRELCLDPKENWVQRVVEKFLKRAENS
Nature of the assay: Dose Response confirmation of uHTS small molecule hits for cystic fibrosis induced NFkb Inhibitors in a PAF-induced IL8 counterscreen. Format: functional. Conditions: read-out: IC50_Mean.

Assay [7] concerns the target T5, Apoptotic protease-activating factor 1 (Homo sapiens, UniProt O14727).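 Also: caspase-3 cleavage of fluorogenic Rh110 DEVD substrate downstream of apoptosome activation.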
T5 sequence (O14727 whole entry): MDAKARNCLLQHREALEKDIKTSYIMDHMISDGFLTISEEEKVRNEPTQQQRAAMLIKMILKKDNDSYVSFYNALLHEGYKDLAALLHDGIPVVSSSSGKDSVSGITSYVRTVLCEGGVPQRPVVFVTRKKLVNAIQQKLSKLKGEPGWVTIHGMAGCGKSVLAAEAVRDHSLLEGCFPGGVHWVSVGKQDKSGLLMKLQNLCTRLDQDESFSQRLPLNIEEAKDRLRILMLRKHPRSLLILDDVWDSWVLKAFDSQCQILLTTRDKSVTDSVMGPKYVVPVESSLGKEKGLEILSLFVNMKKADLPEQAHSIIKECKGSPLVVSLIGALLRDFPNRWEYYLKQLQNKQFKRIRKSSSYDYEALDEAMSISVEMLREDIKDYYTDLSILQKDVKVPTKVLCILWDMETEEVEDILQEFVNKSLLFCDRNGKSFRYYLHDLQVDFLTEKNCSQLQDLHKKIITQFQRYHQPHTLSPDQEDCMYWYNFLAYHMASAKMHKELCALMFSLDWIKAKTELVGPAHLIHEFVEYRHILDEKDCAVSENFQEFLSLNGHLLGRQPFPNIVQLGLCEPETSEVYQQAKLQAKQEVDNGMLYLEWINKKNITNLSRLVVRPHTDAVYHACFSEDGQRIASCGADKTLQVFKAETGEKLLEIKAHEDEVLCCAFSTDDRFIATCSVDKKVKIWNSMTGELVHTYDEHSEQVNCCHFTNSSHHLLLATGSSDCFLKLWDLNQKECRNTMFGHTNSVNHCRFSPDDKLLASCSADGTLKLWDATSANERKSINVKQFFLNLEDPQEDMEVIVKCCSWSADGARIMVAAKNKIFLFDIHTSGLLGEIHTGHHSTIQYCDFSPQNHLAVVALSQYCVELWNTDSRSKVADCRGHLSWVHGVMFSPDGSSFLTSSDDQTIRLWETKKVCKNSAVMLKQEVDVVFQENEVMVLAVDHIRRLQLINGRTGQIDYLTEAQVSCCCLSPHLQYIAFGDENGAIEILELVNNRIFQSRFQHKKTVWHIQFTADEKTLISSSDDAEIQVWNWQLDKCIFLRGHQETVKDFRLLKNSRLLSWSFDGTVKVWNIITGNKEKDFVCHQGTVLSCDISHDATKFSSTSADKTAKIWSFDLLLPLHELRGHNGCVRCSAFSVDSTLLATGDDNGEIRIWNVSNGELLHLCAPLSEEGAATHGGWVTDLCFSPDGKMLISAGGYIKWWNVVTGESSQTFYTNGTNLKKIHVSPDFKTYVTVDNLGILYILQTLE
Nature of the assay: SAR analysis of small molecule Activators of Apaf-1 in a Fluorescent assay. The class given is functional. Conditions: read-out: EC50_Mean.

In assay [8] the target is T6, Methionyl-tRNA synthetase, putative (Trypanosoma brucei brucei, UniProt Q38C91).
T6 sequence (Q38C91 whole entry): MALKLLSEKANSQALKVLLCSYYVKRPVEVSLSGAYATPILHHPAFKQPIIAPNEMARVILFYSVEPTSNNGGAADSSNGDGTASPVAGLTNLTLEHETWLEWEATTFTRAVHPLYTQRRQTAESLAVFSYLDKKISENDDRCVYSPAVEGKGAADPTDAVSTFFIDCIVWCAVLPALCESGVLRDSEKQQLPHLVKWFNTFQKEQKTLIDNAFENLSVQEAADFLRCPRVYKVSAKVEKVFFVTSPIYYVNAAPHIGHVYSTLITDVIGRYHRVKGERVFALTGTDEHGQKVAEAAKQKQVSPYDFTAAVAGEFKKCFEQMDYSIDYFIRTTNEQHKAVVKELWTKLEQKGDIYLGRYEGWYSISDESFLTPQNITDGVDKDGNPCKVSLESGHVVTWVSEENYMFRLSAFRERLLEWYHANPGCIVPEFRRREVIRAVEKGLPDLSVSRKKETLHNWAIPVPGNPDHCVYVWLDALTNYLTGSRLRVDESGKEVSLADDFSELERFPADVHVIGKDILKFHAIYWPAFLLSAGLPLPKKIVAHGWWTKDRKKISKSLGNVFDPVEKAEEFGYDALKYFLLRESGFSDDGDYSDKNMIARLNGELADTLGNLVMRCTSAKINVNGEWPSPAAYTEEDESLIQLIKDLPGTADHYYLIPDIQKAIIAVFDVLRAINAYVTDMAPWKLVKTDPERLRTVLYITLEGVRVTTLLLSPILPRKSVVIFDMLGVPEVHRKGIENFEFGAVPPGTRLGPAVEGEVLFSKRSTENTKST
The class given is functional, Trypanosoma brucei brucei strain 927/4 GUTat10.1.

The nature of assay [9]: Counterscreen for inhibitors of Trypanosoma brucei methionyl tRNA synthetase (MetRS): Luminescence-based cell-based high throughput dose response assay to identify compounds that are cytotoxic to Jurkat human T lymphocyte cells. The class given is functional. (The purpose of a counterscreen is to sort out artefacts and off-target activity.)
Assay [10] addresses T6, Methionyl-tRNA synthetase, putative. Format: functional, Trypanosoma brucei brucei strain 927/4 GUTat10.1. The source holds these as a separate data set.
The target of assay [11] is Melanocortin receptor 4 (Homo sapiens, UniProt P32245). Format: functional, cell-based.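 Also: Cell-based assay with luminescence read-out, confirmatory dose-response testing for agonist activity of biased ligands at MC4R; human U2OS cells with tagged receptor and beta-arrestin; potency of agonists that increase receptor coupling to beta-arrestin.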
In assay [12] the target is T7, Low molecular weight phosphotyrosine protein phosphatase (Homo sapiens, UniProt P24666).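 Also: Dose-response confirmation assay measuring inhibition of LMPTP enzyme activity by fluorescence intensity read-out.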
T7 sequence (P24666 whole entry): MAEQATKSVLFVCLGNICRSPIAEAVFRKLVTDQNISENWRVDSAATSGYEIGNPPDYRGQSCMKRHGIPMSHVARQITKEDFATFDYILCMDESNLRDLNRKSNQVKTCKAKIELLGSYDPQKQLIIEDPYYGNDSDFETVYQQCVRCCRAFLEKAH
The class given is functional. Conditions: read-out: IC50_Mean.

The test system of assay [13] is Escherichia coli. Nature of the assay: microbe, parasite or virus in culture.
Assay [14] is described as follows: Late stage assay provider results from the probe development effort to identify inhibitors of the Plasmodium falciparum M17 Leucine Aminopeptidase (M17LAP): radiolabel-based cell-based dose response assay to identify compounds that inhibit P. falciparum growth in RBCs Set 2. The class given is functional.
Assay [15] has as its target DNA (cytosine-5)-methyltransferase 1 (Homo sapiens, UniProt P26358). Kind of assay: inhibition of DNA methylation by DNMT1 – biochemical, fluorescent molecular beacon, confirmation (AID 602386). The class given is functional.

Calls of active or inactive are those of the source. A value given as a limit tells only on which side of the number the result lay.

Chain of Melanocortin receptor 4 (P32245 whole entry): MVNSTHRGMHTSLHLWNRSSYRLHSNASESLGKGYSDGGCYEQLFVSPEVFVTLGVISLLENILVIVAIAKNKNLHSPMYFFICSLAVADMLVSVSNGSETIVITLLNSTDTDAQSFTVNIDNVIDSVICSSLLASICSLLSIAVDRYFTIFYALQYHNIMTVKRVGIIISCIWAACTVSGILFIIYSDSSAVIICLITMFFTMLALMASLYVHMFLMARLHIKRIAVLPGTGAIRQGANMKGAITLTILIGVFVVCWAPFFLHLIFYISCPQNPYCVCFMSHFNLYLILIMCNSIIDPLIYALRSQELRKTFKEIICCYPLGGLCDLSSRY
Chain of DNA (cytosine-5)-methyltransferase 1 (P26358 whole entry): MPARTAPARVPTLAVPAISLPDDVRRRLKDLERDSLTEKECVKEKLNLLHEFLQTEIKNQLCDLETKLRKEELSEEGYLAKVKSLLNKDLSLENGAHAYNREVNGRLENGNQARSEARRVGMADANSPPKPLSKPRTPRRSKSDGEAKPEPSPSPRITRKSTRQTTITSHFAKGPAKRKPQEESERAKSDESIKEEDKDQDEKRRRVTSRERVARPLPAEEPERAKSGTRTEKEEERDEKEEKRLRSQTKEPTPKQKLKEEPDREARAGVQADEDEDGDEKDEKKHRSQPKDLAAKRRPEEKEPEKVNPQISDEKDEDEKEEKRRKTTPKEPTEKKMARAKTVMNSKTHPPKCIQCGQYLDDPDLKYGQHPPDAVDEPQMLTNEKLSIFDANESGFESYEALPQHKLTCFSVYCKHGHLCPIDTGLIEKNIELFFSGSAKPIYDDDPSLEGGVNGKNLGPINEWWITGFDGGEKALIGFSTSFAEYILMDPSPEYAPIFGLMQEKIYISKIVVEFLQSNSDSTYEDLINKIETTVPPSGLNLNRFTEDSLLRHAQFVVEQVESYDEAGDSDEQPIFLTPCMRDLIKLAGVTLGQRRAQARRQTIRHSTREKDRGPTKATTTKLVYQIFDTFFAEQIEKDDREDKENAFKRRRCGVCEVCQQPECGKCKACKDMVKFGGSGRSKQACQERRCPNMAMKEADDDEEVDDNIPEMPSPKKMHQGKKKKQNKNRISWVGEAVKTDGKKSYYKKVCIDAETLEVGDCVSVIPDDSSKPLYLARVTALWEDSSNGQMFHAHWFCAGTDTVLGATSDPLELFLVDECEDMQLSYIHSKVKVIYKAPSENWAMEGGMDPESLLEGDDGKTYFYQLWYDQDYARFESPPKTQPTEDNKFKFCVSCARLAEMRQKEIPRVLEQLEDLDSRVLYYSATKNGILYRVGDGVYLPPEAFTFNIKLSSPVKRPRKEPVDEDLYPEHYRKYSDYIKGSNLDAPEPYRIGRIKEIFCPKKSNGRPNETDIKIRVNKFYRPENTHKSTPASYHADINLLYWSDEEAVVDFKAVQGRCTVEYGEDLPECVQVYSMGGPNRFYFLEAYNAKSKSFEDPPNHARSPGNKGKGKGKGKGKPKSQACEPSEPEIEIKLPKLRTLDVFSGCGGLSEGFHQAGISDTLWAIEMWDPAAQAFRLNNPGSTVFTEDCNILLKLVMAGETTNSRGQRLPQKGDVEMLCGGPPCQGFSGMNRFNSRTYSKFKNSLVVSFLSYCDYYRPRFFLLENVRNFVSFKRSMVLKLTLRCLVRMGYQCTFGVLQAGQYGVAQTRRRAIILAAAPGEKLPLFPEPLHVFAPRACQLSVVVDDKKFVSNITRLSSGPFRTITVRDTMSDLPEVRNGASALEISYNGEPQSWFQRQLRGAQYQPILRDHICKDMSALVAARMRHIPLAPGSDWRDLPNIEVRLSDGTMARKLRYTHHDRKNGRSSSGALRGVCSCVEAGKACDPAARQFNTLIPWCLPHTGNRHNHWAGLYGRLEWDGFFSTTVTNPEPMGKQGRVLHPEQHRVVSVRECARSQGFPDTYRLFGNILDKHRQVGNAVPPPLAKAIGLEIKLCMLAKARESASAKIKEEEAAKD

`COc1cc2c(c(OC)c1OC)-c1ccc(O)c(=O)cc1[C@@H](N)CC2`: the IC50 was > 20 µM (inactive) in [1], > 100 µM (inactive) in [2] and 25.7 µM (active) in assay [3]. Take `CCOc1ccc(-n2c(C)c(C(C)=O)c3cc(OC(C)=O)ccc32)cc1`: in assay [4], the EC50 was 24.6 µM (active). The IC50 in assay [5] was 9.08 µM (active); in [6] it was > 79 µM (inactive). As to `Cc1cc(C)n(CC(C)C(=O)Nc2ccc(Cl)c(Cl)c2)n1` (stereo not drawn), the EC50 in assay [7] was > 100 µM (inactive). On the same count and under the same terms, the value for `COC(=O)c1coc(-c2ccc(-c3ccccc3)cc2)n1` was > 100 µM (inactive). On to `O=C(CC(=O)Nc1cccc(Cl)c1)N/N=C\c1ccccc1`, for which the IC50 in [8] is 6.25 µM (active); in assay [9], 83.3 µM (inactive); in [10], 3.94 µM (active). For `CCOc1ccc(Cn2c3ccc(OC)cc3c3nc4ccccc4nc32)cc1`, the EC50 in assay [11] is > 89.2 µM (inactive). As to `CCn1cc(C(=O)O)c(=O)c2cc(F)c(N3CCN(C(=S)NC(=O)c4ccc(F)c(F)c4)CC3)cc21`, the IC50 in [12] is 16.6 µM (active). The AC50 in [13] is 3.38 µM (active). `CC(C)COc1ccc(CC(=O)NO)cc1`: in assay [14], the IC50 was 7.4 µM (active). Same read-out and setting: the value for `O=C(Cc1ccc2c(c1)CCCC2)NO` was 5.5 µM (active). On to `Cc1cc(C)c2sc(N(CCCN(C)C)C(=O)c3ccc(Br)s3)nc2c1`, for which the EC50 in assay [11] is > 89.2 µM (inactive). For `CC(=O)c1cccc(OCC(=O)N(C)CC(=O)NCc2ccco2)c1`, in [15], the IC50 was 6.09 µM (active).
